The text below walks through data of US12133855B2, “Lipid-like nanocomplexes and uses thereof” (Trustees of Tufts College, priority 2018, dated 2024).

Molecules are shown by their SMILES. Like-named read-outs stand apart in the source and are kept apart here.

The test system of data set [1] is HeLa-DsRed cells. As to the kind of experiment: Internalization mechanism study with endocytosis inhibitors. Type of data set: cell-based. As to conditions: [lipidoid]=6.6 μg mL^−1, [(−30)GFP-Cre]=100 nM; 6 h. An excerpt: In this context, the internalization mechanism of the (−30)GFP-Cre/LNPs complexes was studied at first, by introducing different endocytosis inhibitors, i.e., sucrose (clathrin-mediated endocytosis inhibitor), methyl-β-cyclodextrin (M-β-CD, cholesterol-depleting agent), dynasore (dynamin II inhibitor) and nystatin (caveolin-mediated endocytosis inhibitor), following our previously reported procedures. […] Comparing to other combinatorial library studies, it is clear that even loaded with same cargoes and tested against same cell line, different lipidoids with different chemical structures could be internalized through very distinct pathways. Next, the genome-editing efficiencies of (−30)GFP-Cre/LNPs were determined by flow cytometry after 24 h of incubation (with 8 h of (−30)GFP-Cre/LNPs complex exposure). Three different concentrations of protein/lipidoid complexes (25 nM/1.7 μg mL^−1, 50 nM/3.4 μg mL^−1, and 100 nM/6.6 μg mL^−1) were tested for each lipidoid nanoparticle. […] For example, the DsRed^+ cells were recorded as 10.5%/24.9%/88.9%, 13.5%/55.4%/88.8%, and 27.7%/47.8%/94.7% for (−30)GFP-Cre loaded 75-OCholB, 76-OCholB and 77-OCholB, respectively, at the protein concentration of 25, 50 and 100 nM. […] Then, the cytotoxicity profiles of (−30)GFP-Cre/LNPs, (−30)GFP-Cre/Lpf2k and naked (−30)GFP-Cre at different concentrations against HeLa-DsRed cells (8 h of exposure; (−30)GFP-Cre/LNPs=25 nM/1.7 μg mL^−1, 50 nM/3.4 μg mL^−1, and 100 nM/6.6 μg mL^−1) are measured using MTT assay after 24 h of incubation. […] For (−30)GFP-Cre/75-OCholB treated cells, the viabilities were determined to be 95.5%, 91.8% and 83.1%, at the protein concentration of 25, 50 and 100 nM, respectively; the numbers for (−30)GFP-Cre/76-OCholB and (−30)GFP-Cre/77-OCholB are 97.8%/98.2%/97.2 and 100.9%/96.6%/98.6%. […] Meanwhile, the morphology changes of HeLa-DsRed cell treated with different nanoparticle formulations were studied and the results are shown in FIG. 15E. […]

Data set [2] relates to HeLa-DsRed cells. The data set is classed as cell-based. The note with it: for cell viability: 8 h exposure, MTT after 24 h; for cell morphology changes: bright field images. The method, then: All experiments were performed in quadruplicate.
In this context, the internalization mechanism of the (−30)GFP-Cre/LNPs complexes was studied at first, by introducing different endocytosis inhibitors, i.e., sucrose (clathrin-mediated endocytosis inhibitor), methyl-β-cyclodextrin (M-β-CD, cholesterol-depleting agent), dynasore (dynamin II inhibitor) and nystatin (caveolin-mediated endocytosis inhibitor), following our previously reported procedures. […] Comparing to other combinatorial library studies, it is clear that even loaded with same cargoes and tested against same cell line, different lipidoids with different chemical structures could be internalized through very distinct pathways. Next, the genome-editing efficiencies of (−30)GFP-Cre/LNPs were determined by flow cytometry after 24 h of incubation (with 8 h of (−30)GFP-Cre/LNPs complex exposure). Three different concentrations of protein/lipidoid complexes (25 nM/1.7 μg mL^−1, 50 nM/3.4 μg mL^−1, and 100 nM/6.6 μg mL^−1) were tested for each lipidoid nanoparticle. […] For example, the DsRed^+ cells were recorded as 10.5%/24.9%/88.9%, 13.5%/55.4%/88.8%, and 27.7%/47.8%/94.7% for (−30)GFP-Cre loaded 75-OCholB, 76-OCholB and 77-OCholB, respectively, at the protein concentration of 25, 50 and 100 nM. […] Then, the cytotoxicity profiles of (−30)GFP-Cre/LNPs, (−30)GFP-Cre/Lpf2k and naked (−30)GFP-Cre at different concentrations against HeLa-DsRed cells (8 h of exposure; (−30)GFP-Cre/LNPs=25 nM/1.7 μg mL^−1, 50 nM/3.4 μg mL^−1, and 100 nM/6.6 μg mL^−1) are measured using MTT assay after 24 h of incubation. […] For (−30)GFP-Cre/75-OCholB treated cells, the viabilities were determined to be 95.5%, 91.8% and 83.1%, at the protein concentration of 25, 50 and 100 nM, respectively; the numbers for (−30)GFP-Cre/76-OCholB and (−30)GFP-Cre/77-OCholB are 97.8%/98.2%/97.2 and 100.9%/96.6%/98.6%. […] Meanwhile, the morphology changes of HeLa-DsRed cell treated with different nanoparticle formulations were studied and the results are shown in FIG. 15E. […] Samples found in upper left quadrant are non-toxic and inefficient for delivery; samples in lower left quadrant are toxic and inefficient; samples in lower right quadrant are efficient but toxic; samples in upper right quadrant are non-toxic and efficient, which would be top candidates for further study. It is clear that Lpf2k (shown in dotted purple circle) at high concentration is relatively efficient for genome editing, while also toxic to the target cells. On the other hand, most of the (−30)GFP-Cre loaded OCholB LNPs are almost non-toxic when compared to (−30)GFP-Cre/Lpf2k, similar to naked (−30)GFP-Cre protein. 87-OCholB, 90-OCholB and 304-OCholB (shown in dotted dark blue circle) are less efficient for genome-editing; while high genome editing efficacy and excellent tolerability were achieved by using 75-OCholB, 76-OCholB and 77-OCholB (shown in dotted green circle).

The mark [3] stands for this setting: (−30)GFP-Cre 25 nM/1.7 μg mL^−1.
[4] abbreviates: (−30)GFP-Cre 50 nM/3.4 μg mL^−1.
[5] abbreviates: (−30)GFP-Cre 100 nM/6.6 μg mL^−1.

What is called cell viability is a read-out of living cells in per cent, often relative to untreated cells. Turning to `CC(C)CCCC(C)C1CCC2C3CC=C4CC(OC(=O)NCCSSCCOC(=O)CCN(CCC(=O)OCCSSCCNC(=O)OC5CCC6(C)C(=CCC7C6CCC6(C)C(C(C)CCCC(C)C)CCC76)C5)CCN5CCCC5)CCC4(C)C3CCC12C` (stereo not drawn) [Lipidoid 76-OCholB], the “internalization efficiency with endocytosis inhibitors” value in data set [1] was “significantly suppressed by sucrose and dynasore”. In addition, the cell viability in data set [2] (setting [3]) is listed as 97.8%; in data set [2] (setting [4]), 98.2%; in data set [2] (setting [5]) it was 97.2%. In addition, the cell morphology changes result in data set [2] is “less affected”.

For the compound `CCN(CC)CCN(CCC(=O)OCCSSCCNC(=O)OC1CCC2(C)C(=CCC3C2CCC2(C)C(C(C)CCCC(C)C)CCC32)C1)CCC(=O)OCCSSCCNC(=O)OC1CCC2(C)C(=CCC3C2CCC2(C)C(C(C)CCCC(C)C)CCC32)C1` (stereo not drawn) [Lipidoid 75-OCholB], the “internalization efficiency with endocytosis inhibitors” value in data set [1] is “significantly suppressed by sucrose and dynasore”. Moreover, the cell viability amounted to 95.5% in data set [2] (setting [3]), 91.8% in data set [2] (setting [4]) and 83.1% in data set [2] (setting [5]). In data set [2], the cell morphology changes entry is reported as “less affected”.

For the compound `CC(C)CCCC(C)C1CCC2C3CC=C4CC(OC(=O)NCCSSCCOC(=O)CCN(CCC(=O)OCCSSCCNC(=O)OC5CCC6(C)C(=CCC7C6CCC6(C)C(C(C)CCCC(C)C)CCC76)C5)CCC5CCCN5C)CCC4(C)C3CCC12C` (stereo not drawn) [Lipidoid 77-OCholB], the “internalization efficiency with endocytosis inhibitors” value in data set [1] was “significantly suppressed by sucrose and dynasore”. Also, the cell viability in data set [2] (setting [3]) worked out at 100.9%; in data set [2] (setting [4]), 96.6%; in data set [2] (setting [5]), 98.6%. Also, the cell morphology changes entry in data set [2] is reported as “less affected”.
